Patent US12377079B2, “Antibacterial compounds and uses thereof” (The Children's Medical Center Corporation, priority 2018, dated 2025)
Values after ≈ are worked out from the molar mass of the structure shown. “Also recorded” adds a separate entry of the source. Read-outs that look alike come from different tables or passages of the source.

Tests used:
[1] = system: K. pneumoniae (Kp233); experiment: Compound impact on bacterial viability (exponential and stationary phase); type: cell-based, Klebsiella pneumoniae; conditions: 4 hr; for Bacterial viability (CFU) with efflux pump inhibition: 100 μg/mL compound + PAβN 40 μg/ml
Experimental: Compound impact on bacterial viability. […] One hundred μL of each compound preparation was dispensed into the wells of a microtiter plate. Negative (untreated) wells contained LB with or without PAβN only. Stationary phase cell viability. A glycerol stock of the carbapenem-susceptible clinical strain of K. pneumoniae (Kp233) was inoculated into 1.5 mL of LB and incubated overnight (approximately 18 hr) at 37° C. with shaking. […] Cells were incubated statically at 37° C. for 4 hr, and viable counts were determined by plating. Exponential phase cell viability. Overnight cultures of Kp233 were diluted 1:5,000 into 50 mL of LB broth and incubated at 37° C. with shaking at 200 rpm. […] These cells were also washed twice with NS and inoculated into the wells of a microtiter plate prepared as described above. Cells were incubated statically at 37° C. for 4 hr, and viable counts were determined by plating.

[2] = system: K. pneumoniae Kp233; experiment: Minimum inhibitory concentration (MIC); conditions: for MIC: Klebsiella pneumoniae
[3] = system: E. coli urine isolate EC236; experiment: Minimum inhibitory concentration (MIC); conditions: Escherichia coli, read-out: Minimum inhibitory concentration (MIC)
[4] = system: E. coli urine isolate EC235; experiment: Minimum inhibitory concentration (MIC); conditions: Escherichia coli, read-out: Minimum inhibitory concentration (MIC)
[5] = system: P. aeruginosa PA01; experiment: Minimum inhibitory concentration (MIC); conditions: for Minimum inhibitory concentration (MIC): P. aeruginosa PA01, PAβN + (40 μg/mL); for MIC: Pseudomonas aeruginosa, PA01, read-out: Minimum inhibitory concentration (MIC)
[6] = system: K. pneumoniae (Kp233); experiment: Morphometric analysis by phase contrast microscopy; type: cell-based, Klebsiella pneumoniae; conditions: stationary phase cells, 4 hr; compounds 100 μl/mI alone or with PAβN, ampicillin 150 μg/mL
Experimental: (§1) Morphometric analysis. Carbapenem-susceptible Kp233 were treated as described for stationary phase viability assays, with the exception that negative control wells contained no DMSO and no antimicrobials. Ampicillin (150 μg/mL) was used as a positive control. Cells were incubated statically at 37° C. for 4 hr. Thirty μL from each well was transferred into a 24-well plate filled with 300 μL of LB broth. Images were captured with a 40× magnification lens using a Nikon Eclipse TE2000-E microscope. Morphometric analysis was carried out using IPLab 4.0 software.

[7] = system: HeLa S3 cells; experiment: Alamar Blue assay for cytotoxicity; type: cell-based, human; conditions: 20 hours
Experimental: Alamar Blue assay for cytotoxicity. HeLa S3 cells were cultured in Dulbecco's modified Eagle medium supplemented with 10% fetal bovine serum, 100 U/mL penicillin, and 100 μg/mL streptomycin. Each well of a 96-well microtiter plate (Nunclon Delta Surface, Thermo Scientific) was seeded with 10,000 cells in 100 μL of culture medium. Cells were incubated for 18 hr in a humidified incubator at 37° C. with 5% CO2 to allow attachment. Compounds were added to the adherent cells to yield a final concentration of 13 and 107 μg/mL. Positive control wells contained 0.1% Triton X-100, carrier control wells contained DMSO, and negative control wells contained medium and cells without DMSO. After addition of compounds, 0.1% Triton, or DMSO, plates were returned to the incubator. Cell viability was measured by resazurin reduction. Alamar Blue reagent (Invitrogen) was added to the cells after a 1.5 hr incubation with the test compounds. Cells were incubated for 20 hr, and then fluorescence was measured using the Infinite 200 (Tecan) with excitation and emission wavelengths of 550 nm and 590 nm, respectively. To calculate viability, the average fluorescence value of Triton-treated positive control wells was subtracted from that of untreated wells or wells containing test compounds. These values were then divided by the average fluorescence of untreated wells to give cell viability as a percentage of the negative control.

[8] = system: A. baumanii; experiment: Minimum inhibitory concentration (MIC); conditions: for Minimum inhibitory concentration (MIC): A. baumanii, PAβN + (40 μg/mL); for MIC: Acinetobacter baumannii, read-out: Minimum inhibitory concentration (MIC)
[9] = system: Kp233/pJBA110; experiment: GFP fluorescence assay (protein synthesis); conditions: 15 hr
[10] = Particulate matter in aqueous media (micrographs); type: physicochemical; conditions: 100 μg/mL in culture medium
Experimental: as §1

[11] = system: resistant GNR; experiment: MIC with and without efflux pump inhibitor PAβN, resistant GNR as a group
[12] = system: Group A streptococcus; experiment: Minimum inhibitory concentration (MIC); conditions: read-out: Minimum inhibitory concentration (MIC)
[13] = system: CR-K. pneumoniae (ATCC BAA-1705); experiment: Minimum inhibitory concentration (MIC); conditions: for Minimum inhibitory concentration (MIC): CR-K. pneumoniae ATCC BAA-1705, PAβN + (40 μg/mL); for MIC: Klebsiella pneumoniae
[14] = system: CR K. pneumoniae strain BAA-1705; experiment: Dose-response growth inhibition (viable cell counts in LB broth); conditions: 22 hr in LB broth, concentrations tested 0.78-50 μg/mL
[15] = system: K. pneumoniae strain BAA-1705; experiment: High-throughput screen / dose-response based on mannose fermentation; conditions: for Inhibition of mannose fermentation: 22 hours, pH-DM, concentrations similar to primary and cherry-pick screens
[16] = system: MRSA; experiment: Minimum inhibitory concentration (MIC); conditions: Staphylococcus aureus, read-out: Minimum inhibitory concentration (MIC)
[17] = biological target: Human tyrosyl-DNA phosphodiesterase 1 (TDP1) (Homo sapiens, UniProt Q9NUW8); conditions: PubChem BioAssay; cited from earlier work
Sequence of Human tyrosyl-DNA phosphodiesterase 1 (TDP1) (Q9NUW8 whole entry): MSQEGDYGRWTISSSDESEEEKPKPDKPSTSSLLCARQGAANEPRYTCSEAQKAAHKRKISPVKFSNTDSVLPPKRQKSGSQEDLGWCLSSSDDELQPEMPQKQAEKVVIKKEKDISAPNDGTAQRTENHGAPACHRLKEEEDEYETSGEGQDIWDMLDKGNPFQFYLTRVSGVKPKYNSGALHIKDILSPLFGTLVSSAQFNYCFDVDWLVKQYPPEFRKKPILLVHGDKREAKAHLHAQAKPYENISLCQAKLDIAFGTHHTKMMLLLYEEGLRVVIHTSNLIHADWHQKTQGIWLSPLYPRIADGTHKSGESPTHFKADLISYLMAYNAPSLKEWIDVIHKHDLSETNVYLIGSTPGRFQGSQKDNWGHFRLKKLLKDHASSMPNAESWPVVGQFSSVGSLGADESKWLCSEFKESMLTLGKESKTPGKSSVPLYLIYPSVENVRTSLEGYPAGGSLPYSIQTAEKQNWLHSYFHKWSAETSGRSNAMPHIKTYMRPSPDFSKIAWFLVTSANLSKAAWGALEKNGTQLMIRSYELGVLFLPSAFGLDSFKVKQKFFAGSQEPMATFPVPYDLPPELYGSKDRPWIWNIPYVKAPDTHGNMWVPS

[18] = system: Lassa virus entry; conditions: PubChem BioAssay; cited from earlier work
[19] = system: S. aureus teichoic acid biosynthesis; conditions: secondary screens, after a hit in the primary screen; cited from earlier work
[20] = biological target: LmGT2 (Leishmania mexicana, UniProt O61059); conditions: high-throughput screen, PubChem BioAssay; cited from earlier work
Sequence of LmGT2 (O61059 entry or part of it): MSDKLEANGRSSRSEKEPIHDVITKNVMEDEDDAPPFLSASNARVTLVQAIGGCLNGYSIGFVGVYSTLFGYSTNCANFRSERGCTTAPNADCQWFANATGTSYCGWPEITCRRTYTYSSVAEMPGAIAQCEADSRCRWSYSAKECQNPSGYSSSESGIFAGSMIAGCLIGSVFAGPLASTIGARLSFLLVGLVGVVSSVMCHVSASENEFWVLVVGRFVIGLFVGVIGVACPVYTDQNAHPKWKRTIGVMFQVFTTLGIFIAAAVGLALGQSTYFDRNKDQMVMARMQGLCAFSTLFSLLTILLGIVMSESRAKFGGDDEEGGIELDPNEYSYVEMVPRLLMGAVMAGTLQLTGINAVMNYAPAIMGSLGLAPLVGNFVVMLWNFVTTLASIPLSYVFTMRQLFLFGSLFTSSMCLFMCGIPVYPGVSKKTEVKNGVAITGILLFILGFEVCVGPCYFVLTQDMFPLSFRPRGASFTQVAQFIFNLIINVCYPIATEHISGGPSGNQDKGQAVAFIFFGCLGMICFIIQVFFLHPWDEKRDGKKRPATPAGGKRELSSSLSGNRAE

[21] = biological target: T1, Glut1 (Homo sapiens, UniProt P11166); conditions: high-throughput screen, PubChem BioAssay; cited from earlier work
T1 sequence (P11166 1-492): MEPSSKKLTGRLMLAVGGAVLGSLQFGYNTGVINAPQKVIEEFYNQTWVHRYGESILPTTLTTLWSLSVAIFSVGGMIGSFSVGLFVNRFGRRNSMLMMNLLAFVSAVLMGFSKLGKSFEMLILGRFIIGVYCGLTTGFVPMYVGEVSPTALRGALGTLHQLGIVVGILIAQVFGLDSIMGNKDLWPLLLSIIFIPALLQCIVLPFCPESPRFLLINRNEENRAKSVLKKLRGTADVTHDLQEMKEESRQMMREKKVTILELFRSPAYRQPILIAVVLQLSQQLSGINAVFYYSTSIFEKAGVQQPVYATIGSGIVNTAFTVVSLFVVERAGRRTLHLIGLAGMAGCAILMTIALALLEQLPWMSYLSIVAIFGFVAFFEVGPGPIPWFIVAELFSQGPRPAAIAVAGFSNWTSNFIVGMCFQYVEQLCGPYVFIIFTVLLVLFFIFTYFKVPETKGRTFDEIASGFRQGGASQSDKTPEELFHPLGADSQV

[22] = KP233, read-out: Minimum inhibitory concentration (MIC)
[23] = higher concentration (107 μg/mL)
[24] = highest concentration used (100 μg/mL)
[25] = ATCCBAA1705, read-out: Minimum inhibitory concentration (MIC)
[26] = exponential and stationary phase

Compound | MIC [2, 22] | MIC [3] | MIC [4] | Minimum inhibitory concentration (MIC) [5] | MIC [5] | Cell shape / average particle size [6] | Toxicity to HeLa S3 cells (viability by resazurin reduction) ([7]; 13 and 107 μg/mL) | Minimum inhibitory concentration (MIC) [8] | MIC [8] | Particulate matter in micrographs (insolubility in aqueous media) [10] | MIC [12] | Minimum inhibitory concentration (MIC) [13] | MIC [13, 25] | MIC [16] | also measured
phenylalanine-arginine β-naphthylamide [PAβN, reference compound] | – | – | – | – | – | – | – | – | – | – | – | – | – | – | Bacterial viability (CFU) ([1]; PAβN 40 μg/mL alone, exponential or stationary phase): did not decrease the viability
C[C@H]1COc2c(N3CCN(C)CC3)c(F)cc3c(=O)c(C(=O)O)cn1c23 [Lev, levofloxacin, reference compound] | 0.031 µg/mL (≈ 0.0858 µM) | 0.015 µg/mL (≈ 0.0415 µM) | 0.015 µg/mL (≈ 0.0415 µM) | 0.015 µg/mL | 0.25 µg/mL (≈ 0.692 µM) | – | – | – | – | – | – | – | – | – | Reduction of MIC by PAβN ([5]; P. aeruginosa, with PAβN versus without): 16 fold
CC1(C)S[C@@H]2[C@H](NC(=O)[C@H](N)c3ccccc3)C(=O)N2[C@H]1C(=O)O [ampicillin, reference compound] | – | – | – | – | – | formed filaments with significantly increased average particle size | – | – | – | – | – | – | – | – | –
Cc1nn2c(=O)cc(-c3ccc(F)cc3)[nH]c2c1-c1ccccc1 [Compound F02] | – | – | – | – | – | – | – | – | – | – | – | – | – | – | Toxicity to HeLa S3 cells (viability by resazurin reduction) [7, 23]: moderately toxic
Cc1nnc(SCC2=NN(c3nc4ccccc4[nH]3)C(=O)C2)s1 [Compound C17] | 48 µg/mL (≈ 139 µM) | 96 µg/mL (≈ 279 µM) | 96 µg/mL (≈ 279 µM) | 48 µg/mL | > 96 µg/mL | do not significantly alter cell shape | least toxic; also recorded: not toxic | 24 µg/mL | > 96 µg/mL | not | 96 µg/mL (≈ 279 µM) | 48 µg/mL | 96 µg/mL (≈ 279 µM) | 24 µg/mL (≈ 69.7 µM) | Bacterial growth (OD) and GFP fluorescence [9, 24]: decreased both bacterial growth and protein synthesis; Change of MIC on addition of PAβN (in words) [11]: minimally decreased; Growth inhibition (CFU/ml) [14]: inhibited growth; Inhibition of mannose fermentation [15]: inhibited fermentation; Activity in cherry-pick re-test ([15]; dispensed by HP D300 digital dispenser): significant activity
Cc1nn2c(=O)cc(-c3ccc(Cl)cc3)[nH]c2c1-c1ccccc1 [Compound N08] | > 96 µg/mL | > 96 µg/mL | > 96 µg/mL | 12 µg/mL | > 96 µg/mL | do not significantly alter cell shape | minimal toxicity | 1.5 µg/mL | > 96 µg/mL | particulate matter was observed | > 96 µg/mL | 6 µg/mL | > 96 µg/mL | < 0.75 µg/mL | Toxicity to HeLa S3 cells (viability by resazurin reduction) [7, 23]: moderately toxic; Inhibition of TDP1 (screen) [17]: flagged; Inhibition of Lassa virus entry (screen) [18]: flagged; Inhibition of teichoic acid biosynthesis [19]: not found to have this activity; Bacterial growth (OD) and GFP fluorescence ([9]; low concentrations): interfered with GFP fluorescence but not growth; Reduction of MIC by addition of PAβN [11]: 1-2 logs; Bacterial viability (CFU) with efflux pump inhibition [1, 26]: significantly potentiated the killing activity; also recorded: significantly decrease the viability
Clc1cc(Br)ccc1-c1ccc(CNCC2CCNCC2)o1 [Compound O06] | 96 µg/mL (≈ 250 µM) | 96 µg/mL (≈ 250 µM) | 96 µg/mL (≈ 250 µM) | 24 µg/mL | > 96 µg/mL | do not significantly alter cell shape | most toxic | 24 µg/mL | 48 µg/mL (≈ 125 µM) | not | 48 µg/mL (≈ 125 µM) | 96 µg/mL | 96 µg/mL (≈ 250 µM) | 48 µg/mL (≈ 125 µM) | Activity in screen for LmGT2 inhibitors [20]: active; Bacterial growth (OD) and GFP fluorescence [9, 24]: decreased both bacterial growth and protein synthesis; Change of MIC on addition of PAβN (in words) [11]: minimally decreased; Activity in screen for Glut1 inhibitors [21]: active; Inhibition of mannose fermentation [15]: inhibited fermentation; Bacterial viability (CFU) with efflux pump inhibition [1, 26]: significantly potentiated the killing activity; also recorded: significantly decrease the viability; Bacterial viability (CFU) ([1]; 100 μg/mL compound alone, exponential and stationary phase): decreased the viability
O=C1C=C2C(=CCOC2O)O1 (centres unmarked) [patulin, reference compound] | – | – | – | – | – | – | – | – | – | – | – | – | – | – | Minimum inhibitory concentration ([2]; K. pneumoniae Kp233, Defined Medium): 9.38 µg/mL (≈ 60.9 µM); MIC ([2]; KP233, read-out: Minimum inhibitory concentration): 9.38 µg/mL (≈ 60.9 µM); MIC ([13]; ATCCBAA1705, read-out: Minimum inhibitory concentration, CR-K. pneumoniae ATCC BAA-1705, Defined Medium): 9.38 µg/mL (≈ 60.9 µM); MIC ([13]; ATCCBAA1705, read-out: Minimum inhibitory concentration, CR-K. pneumoniae ATCC BAA-1705, LB broth (rich medium)): 18.8 µg/mL (≈ 122 µM)
O=C(N[C@H](CO)[C@H](O)c1ccc([N+](=O)[O-])cc1)C(Cl)Cl [Cm, chloramphenicol, reference compound] | < 9 µg/mL | < 9 µg/mL | < 9 µg/mL | – | – | – | – | – | – | – | – | 39 µg/mL | 1250 µg/mL (≈ 3870 µM) | – | Reduction of MIC by PAβN ([13]; K. pneumoniae, with PAβN versus without): 32 fold
